Experiments:
VEGF = VEGF content in aqueous humor, ET-1 induced ischemia; type: in vivo, rabbit; details: ET-1 treated rabbits; 0.5 mg (equivalent)/eye IVT
IL-6 = IL-6 content in aqueous humor (ELISA), ET-1 induced ischemia; type: in vivo, rabbit; details: ET-1 treated rabbits; 0.5 mg (equivalent)/eye IVT
Experimental: (§1) Aqueous humor samples were withdrawn from both anterior and posterior chamber fluids of each eye before ET-1 administration (T0), before the administration of Compound (1) or fluorocinolone acetonide (T2), and at the end of treatments (T6). The same volume of saline were reintroduced every time. The aqueous humor samples were immediately frozen at −80° C. until use.
(§2) Tumor necrosis factor (TNFα) and interleukin 6 (IL-6) were determined in aqueous humor with a commercial kit using an ELISA method (Amersham Pharmacia Biotech). The minimum detectable concentrations were 0.10 pg/ml for IL-6 and TNFα. The interassay coefficient of variation was 0.7% for all assays.

[1] = system: VEGF-induced leakage rat model; assay: VEGF-induced retinal vascular leakage rat model (Evans blue); type: in vivo; details: 25 μg/eye intravitreal, VEGF 100 ng/eye, 18 hours after injection
Experimental: Pupils were dilated with 1% topical cyclopentolate hydrochloride to see the needle to guide the intravitreal injection. Recombinant rat vascular endothelial growth factor (VEGF; 100 ng/eye) or VEGF at 100 ng/eye plus test compounds were prepared in 0.5% carboxymethyl cellulose (CMC) in sterile saline and was injected into the vitreous with a 30-gauge needle (Xu, Q., et al. Invest. Ophthalmol. Vis. Sci., 42:789-794, 2001). The compounds of the invention were compared to corresponding steroid cores at equimolar doses. […] Control animals received vehicle. Compound (18) was similarly dosed alongside triamcinolone acetonide for comparison.
Retinal vascular leakage was measured as described previously (Xu, Q., et al. Invest. Ophthalmol. Vis. Sci., 42:789-794, 2001). After about 18 hours post injection of test compounds, rats were anesthetized with ketamine (80 mg/kg) and xylazine (4 mg/kg) IP. Then 45 mg/kg Evans blue (EB) was injected into the jugular vein. The dye was allowed to circulate for 2 hours. The chest cavity was opened and rats then perfused with 1% formalin in 0.5 M citrate buffer (pH 3.5, 37° C.) through the left ventricle. Retinas were carefully dissected from enucleated eyes, placed in pre-weighed Eppendorf tubes, dried in speed vacuum overnight and dry weights recorded. Evans blue was extracted by incubating each retina in 120 μl formamide for 18 hours at 70° C., centrifuged for 2 hours at 6000 rpm. Absorbance of 60 μl of extract was measured at 620 nm and background absorbance was determined at 740 nm. Net absorbance was calculated by subtracting the background 740 nm from that at 620 nm. Measurement of a standard curve of Evans blue in formamide was also done and Evans blue leakage expressed as μl/g/h was calculated as shown below: [EB(ng/ml)×120 (μl)×1000]/[dry weight retina (mg)×circulation time (h)×plasma EB(ng/ml)×100]

ophthalmic artery = assay: Ocular haemodynamics (Color Doppler Imaging, Pourcelot Resistance Index) in ET-1 induced ischemia; type: in vivo, rabbit
Experimental: Haemodynamic evaluations were performed using an eco-color-doppler DynaView TM II SSD-1700 (Aloka Holding Europe AG, Milan, Italy). All animals underwent Color Doppler Imaging (CDI) investigation before ET-1 injection (T0), before the start of drug instillation (T2) and at the end of the drug treatment (T6). Special attention was devoted to the evaluation of ophthalmic and ciliary artery circulation. Blood flow velocities were measured for each vessel and the Pourcelot Resistance Index (RI) was calculated (Galassi F. et al., Acta Opht. Scand Suppl. (2000) 37-38).

TNFα = TNFα content in aqueous humor (ELISA), ET-1 induced ischemia; type: in vivo, rabbit; details: ET-1 treated rabbits; 0.5 mg (equivalent)/eye IVT
Experimental: as §1, §2

[2] = system: New Zealand White rabbits; assay: Electroretinogram (ERG) in ET-1 induced ischemia; details: after ET-1 treatment; 0.5 mg (equivalent)/eye IVT
Experimental: Twenty adult male New Zealand Albino rabbits weighing 2-2.5 Kg were used for the experiments. The animals were divided in two groups for the specific treatment chosen. The experimental procedures were conform to those of the Association for Research in Vision and Ophthalmology Resolution on the use of animals and in agreement with the Good Laboratory Practice for the use of animals and were conducted upon authorization of Italian regulation on protection of animals used for experimental and other scientific purpose (DM 116/1992) as well as with the European Union Regulations (OJ of ECL 358/1, Dec. 12, 1986). The rabbits were kept in individual cages, food and water was provided ad libitum. […]
The Electroretinogram (ERG) was performed in basal condition (T0), before the start of drug treatment (T2) and at the end of drug treatment (T6). […] The eyes were dilated by topical application of tropicamide (1%), adapted to darkness for at least 2 hours, and standard ERGs recorded in both eyes using corneal electrodes. […] The ERG signals were recorded using Retimax (CSO, Florence, Italy). The dark-adapted scotopic response (rod response) and scotopic flash response (photopic erg cone), were recorded. […] An average of three separate ERGs was determined for each eye. The amplitude (uV) of a- and b-waves were calculated for each step. […]

Brown Norway rats = assay: Steroid-induced intraocular pressure (IOP) elevation in rats after intravitreal injection; details: for IOP increase: one week after injection, baseline 18 mm Hg
Excerpt: Male Brown Norway rats (250-275 g; Charles River laboratory) were acclimated for a week before IOP measurements. Baseline IOP measurements with Tonolab Tonometer (Tiolat Inc) were done in conscious rats (Pease, M. E., et al J. Glaucoma, 15:512-519, 2006) before intravitreal injection of test compounds. Then the rats were anesthetized with isoflurane inhalation and a drop of 0.5% tetracaine was topically applied on the eyes. Pupils were dilated with 1% topical cyclopentolate hydrochloride and 2.5% phenylephrine HCl to see the needle to aim the intravitreal injection of test compounds. […] For example, to compare to fluocinolone acetonide at both 25 and 50 μg/eye, compound (1) was dosed at 42.4 and 84.7 μg/eye, respectively. The des-nitro analog of compound (1) was dosed at 39.1 μg/eye (equivalent for 25 μg FC). Control animals received vehicle.
Five measurements were averaged for each time point. IOP measurements were taken at one and two weeks after intravitreal injection of test compounds.

[3] = system: New Zealand White rabbits; assay: Intraocular pressure in endothelin-1 (ET-1) induced ischemia
Experimental: Twenty adult male New Zealand Albino rabbits weighing 2-2.5 Kg were used for the experiments. The animals were divided in two groups for the specific treatment chosen. […] The rabbits were kept in individual cages, food and water was provided ad libitum. The animals were maintained on a 12-12 h light/dark cycle in a temperature controlled room (22°-23° C.).
Ischemia model of optic injury was obtained throughout by injection, twice a week, for 6 weeks, of endothelin-1 (ET-1) 250 nM, 500 μl of sterile saline, into the posterior vitreous body of both eyes, using a lachrymal cannula, under general anesthesia produced by tiletamine plus zolazepam (Zoletil 100, 0.05 mg/kg) plus xilazine (Xilor 2%, 0.05 ml/kg) i.m.
Fluocinolone acetonide (FC) (0.5 mg/eye in 100 μl of vehicle) or Compound (1) (0.5 mg equivalent/eye in 100 μl of vehicle) were instilled intravitreally (IVT) two weeks after the start of ET-1 treatment (T2), in one eyes, the same volume of vehicle was instilled in the other eye.
Intraocular pressure (TOP) was measured twice a using a Tono-Pen XL (Medtronic Solan. USA) as described by Maren's group (Exp. Eye Res. (1992) 55: 73-79; Exp. Eye Res. (1993) 57: 67-78) with a two-point standard pressure measurement.

retinal tissue = assay: Retina protection: morphological analysis, ET-1 induced ischemia; type: in vivo, rabbit; details: long term ET-1 treatment; 0.5 mg (equivalent)/eye IVT
Experimental: The eyes of each animal was enucleated, cornea and crystalline were removed and the eyes was paraformaldehyde-fixed. Then samples were dehydrated with increasing alcohol concentration (50°-75°-95°-100°). After 95° alcohol treatment, the eyes were divided into two parts following a longitudinal plain from cornea to insertion of optical nerve. Thus the samples were paraffin-embedded. Section 8 μm thick were stained with Haematoxylin-Eosin. Microscopical fields were registered by digitizing camera applied a light microscope with a 20× and 40× objective. On the digitized images was performed a morphological analysis of retinal tissue.

[4] = system: isolated rabbit thoracic aorta preparations; assay: Assay on vascular tone (vasorelaxation of methoxamine-precontracted aortic rings); details: rabbit aortic rings precontracted with methoxamine 3 μM
Experimental: The ability of the compounds of the invention to induce vasorelaxation in comparison to precursor compounds was tested in vitro in isolated rabbit thoracic aorta preparations (Wanstall J. C. et al., Br. J. Pharmacol., 134:463-472, 2001). Male New Zealand rabbits (1,8-2 Kg) were used. The animals were anaesthetized with sodium thiopental (50 mg/kg, iv), sacrificed by exsanguinations and then the thorax was opened and the aorta dissected. The aortas were placed immediately in Krebs-HEPES buffer (pH 7.4; composition mM: NaCl 130.0, Kcl 3.7, […] 14.9, KH2PO4 1.2, MgSO4.7H2O 1.2, Glucose 11.0, HEPES 10.0, CaCl2.2H2O 1.6) and cut into ring segments (4-5 mm in length). Each ring was placed in a 5 ml tissue bath filled with Krebs-HEPES buffer (37° C.) aerated with 95% O2 and 5% CO2 and was then attached to a force transducer (Grass FT03), connected to a BIOPAC MP150 System for measurement of the isometric tension^2. The preparations were allowed to equilibrate for 1 h at a resting tension of 2 g with changes of the buffer every 15 minutes and then stimulated by exposure to 90 mM KCl (3 times) with intervening washings. After equilibration, the rings were precontracted submaximally with methoxamine (3 μM) and, when the contraction reach a steady state a cumulative concentration-response curve to the test compounds was obtained. The time intervals between doses were based on the time needed to reach a full a steady state response.
Responses to test compounds were expressed as a percentage of residual contraction and plotted against concentration of test compound. EC50 values (where EC50 is the concentration producing 50% of the maximum relaxation to the test compound) were interpolated from these plots.

Compound: CC1(C)O[C@@H]2C[C@H]3[C@@H]4C[C@H](F)C5=CC(=O)C=C[C@]5(C)[C@@]4(F)[C@@H](O)C[C@]3(C)[C@]2(C(=O)CO)O1 [FC, Fluocinolone acetonide]
- VEGF content in aqueous humor (VEGF): 114.58 ± 5.61 pg/mL
- IL6 content in aqueous humor (IL-6): 16.82 ± 0.98 pg/mL
- inhibition of VEGF-induced leakage [1]: 86.1%
- Resistence Index (ophthalmic artery; After 2 weeks (before drug instillation, T2)): 0.45 ± 0.06
- Resistence Index (ophthalmic artery; After 6 weeks (end of drug treatment), 0.5 mg (equivalent)/eye IVT): 0.60 ± 0.04
- Resistence Index (ophthalmic artery; Basal): 0.45 ± 0.06
- TNFα content in aqueous humor (TNFα): 20.76 ± 1.74 pg/mL
- Photopic erg cone (amplitude) [2]: 136.34 ± 11.98 μV
- IOP compared to compound (1) at 42.4 μg/eye (FIG. 4) (Brown Norway rats; 25 μg/eye intravitreal): increase in IOP
- IOP increase (Brown Norway rats; 25 μg/eye intravitreal): 4 mm Hg
- IOP increase (Brown Norway rats; 50 μg/eye intravitreal): 3 mm Hg
- IOP increase after two weeks (Brown Norway rats; 25 and 50 μg/eye intravitreal, two weeks after injection): maintained
- IOP ([3]; ET-1, 0.5 mg (equivalent)/eye IVT given at T2): 13.00 ± 2.83 mmHG
- IOP ([3]; I week, 0.5 mg (equivalent)/eye IVT, ET-1 ischemia): 15.50 ± 0.71 mmHG
- IOP ([3]; II week, 0.5 mg (equivalent)/eye IVT, ET-1 ischemia): 19.00 ± 0.00 mmHG
- IOP ([3]; III week, 0.5 mg (equivalent)/eye IVT, ET-1 ischemia): 19.00 ± 1.41 mmHG
- IOP ([3]; IV week, 0.5 mg (equivalent)/eye IVT, ET-1 ischemia): 20.80 ± 0.71 mmHG
- IOP ([3]; V week, 0.5 mg (equivalent)/eye IVT, ET-1 ischemia): 22.20 ± 0.00 mmHG
- IOP ([3]; VI week, 0.5 mg (equivalent)/eye IVT, ET-1 ischemia): 21.10 ± 0.00 mmHG
- IOP ([3]; basal, 0.5 mg (equivalent)/eye IVT given at T2): 13.50 ± 0.17 mmHG
- ET-1 induced morphological changes of retinal tissue (retinal tissue): not effective
- EC50 (concentration producing 50% of the maximum relaxation) [4]: no effect

— patent US9012435B2, “Glucocorticoids attached to nitrate esters via an aromatic linker in position 21 and their use in ophthalmology” (Nicox S.A., priority 2008, dated 2015)
